Experimental data from the supplement of paper PMC5844555.

What was measured:
Experiment in all cases: 3' UTR reporter interaction score (median-centred robust z-score of log2 firefly/Renilla activity); higher = less repression of the 3' UTR reporter
Conditions in all cases: HEK293T; 48 h
PHF6 = test system: PHF6
In short: (§1)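 HEK293T cells (10,000/well, 96-well plates) were co-transfected using DharmaFECT Duo with 100 ng firefly luc2P reporter carrying the gene's 3' UTR, 20 ng Renilla pRL-TK control and 2.5 pmol miRNA mimic. Dual-luciferase activities were read 48 h post-transfection. The interaction score is the log-transformed firefly/Renilla ratio as a per-plate robust z-score (median, median absolute deviation), median-centred per miRNA and averaged over at least two independent screens; more negative indicates interaction.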

FBXW7 = test system: FBXW7
In short: as §1

ZEB2 = test system: ZEB2
In short: as §1

NOTCH1 = test system: NOTCH1
In short: as §1

MYT1L = test system: MYT1L
In short: as §1

MYC = test system: MYC
In short: as §1

TP53 = test system: TP53
In short: as §1

RB1 = test system: RB1
In short: as §1

BRCA2 = test system: BRCA2
In short: as §1

EZH2 = test system: EZH2
In short: as §1

MYCN = test system: MYCN
In short: as §1

MYB = test system: MYB
In short: as §1

HRAS = test system: HRAS
In short: as §1

PHOX2B = test system: PHOX2B
In short: as §1

Sequence	3' UTR reporter interaction score (PHF6)	3' UTR reporter interaction score (FBXW7)	3' UTR reporter interaction score (ZEB2)	3' UTR reporter interaction score (NOTCH1)	3' UTR reporter interaction score (MYT1L)	3' UTR reporter interaction score (MYC)	3' UTR reporter interaction score (TP53)	3' UTR reporter interaction score (RB1)	3' UTR reporter interaction score (BRCA2)	3' UTR reporter interaction score (EZH2)	3' UTR reporter interaction score (MYCN)	3' UTR reporter interaction score (MYB)	3' UTR reporter interaction score (HRAS)	3' UTR reporter interaction score (PHOX2B)
UCUGCUCAUACCCCAUGGUUUCU	1.4	-0.521	-0.101	-0.475	-0.849	0.772	0.807	1.62	1.96	0.623	-0.385	-1.65	-0.642	
UAAGGCACCCUUCUGAGUAGA	-0.903	0.601	0.807	-0.104	1.04	-0.593	-0.0578	-1.28	0.5	-2.69	-0.435		0.999	1.39
GGUCCAGAGGGGAGAUAGG	0.39	-0.103	-0.0605	0.349	0.466	-0.219	0.186	-0.274	-0.441	-0.024	-0.926	-0.834		-0.69
UUCUCCAAAAGGGAGCACUUUC	-0.0417	-0.759	1.08	-0.166	2.01	-0.329	-0.24	1.31	-0.958	-0.381	0.94	-0.361	0.596	
CAUUAUUACUUUUGGUACGCG	-0.223	0.0986	0.0582	-0.00418	-0.409	-0.4	0.0619	0.974	-0.00235	0.119		0.454	0.225	0.437
CUCCUGACUCCAGGUCCUGUGU	-4.57	-0.332	-1.51	0.232		1.1	0.342	0.546	0.612	-0.51	-0.0476	0.427	0.32	-0.0385
AAACCGUUACCAUUACUGAGUUU	0.358	-0.543	0.377	-0.371	1.68	-0.972	0.812	-0.236	0.378	0.71	-0.445		-0.683	-1.13
ACUUUAACAUGGAAGUGCUUUCU	-0.0712		-0.795	-0.363	0.13	0.48	0.121		0.253	0.735	-0.0564	-0.31	-0.0142	-0.178
AUGUAUAAAUGUAUACACAC	-0.348	0.329	-1.04	-1.28		-0.0623	1.38	-0.33	0.174	0.905	-0.0355	-0.578	0.0947	0.0154
UUUGUGACCUGGUCCACUAACC	0.815	-0.879	0.152	0.65	-0.568	-1.92	-1.6	0.728	-0.491	0.358	0.167	0.254		0
AAAGUGCUUCUCUUUGGUGGGUU	-0.0534	0.685	0.955	0.392	-0.567	-0.26	0.499	0.799	0.0116	-1.56		-0.782	0.266	1.31
AAAGUGCUGUUCGUGCAGGUAG	0.684	0.872	-0.0741	0.83	-1.47	-0.0736	0.803	0.0538	-0.619		-0.359	-1.38	-0.586	1.63
UUGUGUCAAUAUGCGAUGAUGU	0.901	-1.37	0.639		-0.212	0.588	-0.384	0.229	-0.078	0.77	-0.328	-0.649	1.07	-1.6
CAGUGCAAUAGUAUUGUCAAAGC	1.54	0.383	-0.0807	1.2	-1.35	-0.162	-0.369	1.9	0.327	-0.946	0.282	-1.09		-0.134
UAUUGCACAUUACUAAGUUGC	0.521	-3.29	-0.436	-0.36	0.0117	0.647	-0.165	0.119	0.064	-1.18	1.19		-0.69	
UCUCACACAGAAAUCGCACCCGUC	0.199	-0.236	0.106	0.283	-0.241	-3.89	-0.669	-0.308	1		-1.33	0.485	-1.52	0.123
AAAACGGUGAGAUUUUGUUUU	-0.604	0.403	0.0197	-1.23	-0.225	0.0587	-0.39	-1.03	-0.776		0.148	0.737	-0.201	1.39
UAGUAGACCGUAUAGCGUACG	0.821	-0.321	2.18	1.8	1.28	-0.638	0.138	0.459	-0.367	-0.435	0.359	1.44	-0.49	
CAAGAACCUCAGUUGCUUUUGU	-0.741	-0.0454	-1.03	-0.974	-0.132	0.13	0.405		-0.995	0.928		0.335	1.03	-0.954
UACGUCAUCGUUGUCAUCGUCA	-0.457	0.256	-2.2	-0.131		-0.111	0.00955	0.229	0.347	-0.223	-1.02	-0.203	0.167	0.31
